The results in this text go back to patent US10219516B2, “Molecules having pesticidal utility, and intermediates, compositions, and processes, related thereto” (priority 2015, dated 2019).

Where two headings read alike, the source gives them in different places.

Common to all, as to assay type: in vivo
The test system of assay [1] is Yellow Fever Mosquito (Aedes aegypti, AEDSAE). The assay can be described thus: Bioassay on Yellow Fever Mosquito (YFM), 96-well plate larval assay. The note with it: for YFM rating: Yellow Fever Mosquito, 96-well plate larval assay; for YFM (Biological Results, rating): Species YFM (Yellow Fever Mosquito). The method in brief:
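Compound stocks at 4000 ppm in DMSO were diluted with 90:10 water/acetone, and 15 μL aliquots were dispensed into six replicate plates. About 1-day-old larvae in liver-powder water were added per well. Plates were covered and held at room temperature for 3 days before each well was scored for mortality.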

In assay [2] the test system is Beet Armyworm (Spodoptera exigua, LAPHEG). The assay can be described thus: Bioassay on Beet Armyworm (BAW), 128-well diet tray assay. In short, it runs like this: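 Second instar larvae were exposed to diet treated at 50 μg/cm^2 for five to seven days at 25° C.; mortality was averaged over eight wells.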
Assay [3] concerns Cabbage Looper (Trichoplusia ni, TRIPNI). In words: Bioassay on Cabbage Looper (CL), 128-well diet tray assay. The following applies: Trichoplusia ni. In short, it runs like this: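 Percent mortality, averaged across eight replicate wells, was scored after five to seven days at 25° C. under a 14:10 light-dark cycle. Each well held one to five second instar larvae on artificial diet treated at 50 μg/cm^2 with compound from 90:10 acetone-water, allowed to dry before infestation.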

The mark [4] stands for this setting: Beet Armyworm, 128-well diet tray assay, read-out: BAW rating.
Where [5] appears, read: Cabbage Looper, 128-well diet tray assay, read-out: CL rating.
Setting [6] is: Species BAW (Beet Armyworm), read-out: BAW (Biological Results, rating).
Setting [7] is: Species CL (Cabbage Looper), read-out: CL (Biological Results, rating).

Turning to `O=C(Nc1ccc(F)cc1[N+](=O)[O-])c1cc(NC(=O)[C@H]2[C@H](c3ccc(F)c(Cl)c3)C2(Cl)Cl)ccc1Cl` [F557, 2-Chloro-5-((1R,3R)-2,2-dichloro-3-(3-chloro-4-fluorophenyl)cyclopropane-1-carboxamido)-N-(4-fluoro-2-nitrophenyl)benzamide], in assay [1], the YFM rating result is “A (80-100)”. Also, the pest or weed control at 50 µg/cm2 in assay [2] (setting [4]) and in assay [3] (setting [5]) was 50 to 100% in each case.
In the case of `Nc1ccc(F)c(NC(=O)c2cc(NC(=O)[C@H]3[C@H](c4ccc(Cl)c(Cl)c4)C3(Cl)Cl)ccc2Cl)c1` [F428, N-(5-Amino-2-fluorophenyl)-2-chloro-5-((1R,3R)-2,2-dichloro-3-(3,4-dichlorophenyl)cyclopropane-1-carboxamido)benzamide], the YFM rating entry in assay [1] is on record as “A (80-100)”. The pest or weed control at 50 µg/cm2 in assay [2] (setting [4]) and in assay [3] (setting [5]) was 50 to 100% in each case.
Regarding `COc1c(F)cc([C@H]2[C@H](C(=O)Nc3ccc(Cl)c(C(=O)Nc4ccc(F)cc4F)c3)C2(Cl)Cl)cc1Br` (relative stereo) [F543, 5-(trans-3-(3-Bromo-5-fluoro-4-methoxyphenyl)-2,2-dichlorocyclopropane-1-carboxamido)-2-chloro-N-(2,4-difluorophenyl)benzamide], in assay [1], the YFM rating entry is on record as “A (80-100)”. The pest or weed control at 50 µg/cm2 in assay [2] (setting [4]) and in assay [3] (setting [5]) was 50 to 100% throughout.
Regarding `N#Cc1cc(Cl)cc([C@H]2[C@H](C(=O)Nc3ccc(Cl)c(C(=O)Nc4ccc(F)cc4C#N)c3)C2(Cl)Cl)c1` (relative stereo) [F343, trans-2-Chloro-N-(2-cyano-4-fluorophenyl)-5-(2,2-dichloro-3-(3-chloro-5-cyanophenyl)cyclopropane-1-carboxamido)benzamide], the “YFM (Biological Results, rating)” value in assay [1] is “A (80-100)”. In addition, the pest or weed control at 50 µg/cm2 in assay [2] (setting [6]) and in assay [3] (setting [7]) was 50 to 100% throughout.
Turning to `C=Cc1ccc([C@H]2[C@H](C(=O)Nc3ccc(Cl)c(C(=O)N(C)c4ccc(F)cc4)c3)C2(Cl)Cl)cc1Cl` (relative stereo) [F329, 2-Chloro-5-(trans-2,2-dichloro-3-(3-chloro-4-vinylphenyl)cyclopropane-1-carboxamido)-N-(4-fluorophenyl)-N-methylbenzamide], the “YFM (Biological Results, rating)” value in assay [1] is “A (80-100)”. The pest or weed control at 50 µg/cm2 in assay [2] (setting [6]) and in assay [3] (setting [7]) was 50 to 100% in each case.
Take `CN(C(=O)c1cc(NC(=O)[C@H]2[C@H](c3ccc(Cl)c(Cl)c3)C2(Cl)Cl)ccc1F)c1ccc(F)cc1` (relative stereo) [F59, trans-5-(2,2-Dichloro-3-(3,4-dichlorophenyl)cyclopropane-1-carboxamido)-2-fluoro-N-(4-fluorophenyl)-N-methylbenzamide]: the “YFM (Biological Results, rating)” value in assay [1] is “A (80-100)”. Besides, the pest or weed control at 50 µg/cm2 in assay [2] (setting [6]) and in assay [3] (setting [7]) was 50 to 100% each time.
Consider `O=C(Nc1cncc(NO)c1)c1cc(NC(=O)[C@H]2[C@H](c3cc(Cl)cc(Cl)c3)C2(Cl)Cl)ccc1Cl` [F525, 2-Chloro-5-((1R,3R)-2,2-dichloro-3-(3,5-dichlorophenyl)cyclopropane-1-carboxamido)-N-(5-(hydroxyamino)pyridin-3-yl)benzamide], for which, in assay [1], the YFM rating entry was “A (80-100)”. Further, the pest or weed control at 50 µg/cm2 in assay [2] (setting [4]) and in assay [3] (setting [5]) was 50 to 100% throughout.
Take `COc1nccc(NC(=O)c2cc(NC(=O)[C@H]3[C@H](c4ccc(F)c(Cl)c4)C3(Cl)Cl)ccc2Cl)c1Cl` (relative stereo) [F547, 2-Chloro-N-(3-chloro-2-methoxypyridin-4-yl)-5-(trans-2,2-dichloro-3-(3-chloro-4-fluorophenyl)cyclopropane-1-carboxamido)benzamide]: the YFM rating entry in assay [1] is “A (80-100)”. For the same compound, the pest or weed control at 50 µg/cm2 in assay [2] (setting [4]) and in assay [3] (setting [5]) was 50 to 100% each time.
With `O=C(Nc1ccc(F)cc1F)c1cc(NC(=O)[C@@H]2[C@@H](c3ccc(Cl)c(Br)c3)C2(Cl)Cl)ccc1Cl` [F573, 5-((1S,3S)-3-(3-Bromo-4-chlorophenyl)-2,2-dichlorocyclopropane-1-carboxamido)-2-chloro-N-(2,4-difluorophenyl)benzamide], the YFM rating entry in assay [1] is on record as “A (80-100)”. Also, the pest or weed control at 50 µg/cm2 in assay [2] (setting [4]) and in assay [3] (setting [5]) was 50 to 100% each time.
Consider `N#Cc1ccc(NC(=O)c2cc(NC(=O)[C@H]3[C@H](c4cc(Cl)cc(Cl)c4)C3(Cl)Cl)ccc2Cl)cc1C(F)(F)F` (relative stereo) [F235, 2-Chloro-N-(4-cyano-3-(trifluoromethyl)phenyl)-5-(trans-2,2-dichloro-3-(3,5-dichlorophenyl)cyclopropane-1-carboxamido)benzamide], for which the “YFM (Biological Results, rating)” value in assay [1] was “A (80-100)”. Further, the pest or weed control at 50 µg/cm2 in assay [2] (setting [6]) and in assay [3] (setting [7]) was 50 to 100% in each case.
Consider `CCn1ccc2cc(NC(=O)c3cc(NC(=O)[C@H]4[C@H](c5cc(Cl)cc(Cl)c5)C4(Cl)Cl)ccc3Cl)ccc21` (relative stereo) [F488, 2-Chloro-5-(trans)-(2,2-dichloro-3-(3,5-dichlorophenyl)cyclopropane-1-carboxamido)-N-(1-ethyl-1H-indol-5-yl)benzamide], for which the YFM rating entry in assay [1] is “A (80-100)”. Also, the pest or weed control at 50 µg/cm2 in assay [2] (setting [4]) and in assay [3] (setting [5]) was 50 to 100% throughout.
On to `O=C(Nc1ccncn1)c1cc(NC(=O)[C@H]2[C@H](c3cc(Cl)cc(Cl)c3)C2(Cl)Cl)ccc1Cl` (relative stereo) [F296, trans-2-Chloro-5-(2,2-dichloro-3-(3,5-dichlorophenyl)cyclopropane-1-carboxamido)-N-(pyrimidin-4-yl)benzamide], for which the “YFM (Biological Results, rating)” value in assay [1] is “A (80-100)”. In addition, the pest or weed control at 50 µg/cm2 in assay [2] (setting [6]) and in assay [3] (setting [7]) was 50 to 100% throughout.
For the compound `O=C(Nc1ccc(NC(=O)C2CC2(F)F)cc1)c1cc(NC(=O)[C@H]2[C@H](c3cc(Cl)cc(Cl)c3)C2(Cl)Cl)ccc1Cl` (relative stereo) [PF108, trans-2-chloro-5-(2,2-dichloro-3-(3,5-dichlorophenyl)cyclopropane-1-carboxamido)-N-(4-(2,2-difluorocyclopropane-1-carboxamido)phenyl)benzamide], the YFM rating result in assay [1] is “A (80-100)”. Also, the pest or weed control at 50 µg/cm2 in assay [2] (setting [4]) and in assay [3] (setting [5]) was 50 to 100% in each case.
Turning to `Cc1c(F)ccc(NC(=O)c2cc(NC(=O)[C@H]3[C@H](c4cc(Cl)cc(Cl)c4)C3(Cl)Cl)ccc2Cl)c1C` (relative stereo) [PF54, trans-2-Chloro-5-(2,2-dichloro-3-(3,5-dichlorophenyl)cyclopropane-1-carboxamido)-N-(4-fluoro-2,3-dimethylphenyl)benzamide], in assay [1], the YFM rating result is “A (80-100)”. The pest or weed control at 50 µg/cm2 in assay [2] (setting [4]) and in assay [3] (setting [5]) was 50 to 100% throughout.
As to `CNc1ccc(NC(=O)c2cc(NC(=O)[C@H]3[C@H](c4cc(Cl)cc(Cl)c4)C3(Cl)Cl)ccc2Cl)c(F)c1` (relative stereo) [F177, trans-2-Chloro-5-(2,2-dichloro-3-(3,5-dichlorophenyl)cyclopropane-1-carboxamido)-N-(2-fluoro-4-(methylamino)phenyl)benzamide], in assay [1], the “YFM (Biological Results, rating)” value is “A (80-100)”. Also, the pest or weed control at 50 µg/cm2 in assay [2] (setting [6]) and in assay [3] (setting [7]) was 50 to 100% each time.
For `O=C(Nc1ccc2[nH]cnc2c1)c1cc(NC(=O)C2C(c3cc(Cl)cc(Cl)c3)C2(Cl)Cl)ccc1Cl` (stereo not drawn) [F456, N-(1H-Benzo[d]imidazol-5-yl)-2-chloro-5-(trans)-2,2-dichloro-3-(3,5-dichlorophenyl)cyclopropane-1-carboxamido)benzamide], the YFM rating result in assay [1] is on record as “B (More than 0-Less than 80)”. Also, the pest or weed control at 50 µg/cm2 in assay [2] (setting [4]) and in assay [3] (setting [5]) was 50 to 100% in each case.
In the case of `CNc1ccc(NC(=O)c2cc(NC(=O)[C@H]3[C@H](c4cc(Cl)cc(Cl)c4)C3(Cl)Cl)ccc2Cl)cc1F` (relative stereo) [F176, trans-2-Chloro-5-(2,2-dichloro-3-(3,5-dichlorophenyl)cyclopropane-1-carboxamido)-N-(3-fluoro-4-(methylamino)phenyl)benzamide], the “YFM (Biological Results, rating)” value in assay [1] is “A (80-100)”. Further, the pest or weed control at 50 µg/cm2 in assay [2] (setting [6]) and in assay [3] (setting [7]) was 50 to 100% in each case.
Consider `O=C(Nc1ccc(F)cc1F)c1cc(NC(=O)[C@H]2[C@H](c3ccc(Cl)c(Br)c3)C2(Cl)Cl)ccc1Cl` [F572, 5-((1R,3R)-3-(3-Bromo-4-chlorophenyl)-2,2-dichlorocyclopropane-1-carboxamido)-2-chloro-N-(2,4-difluorophenyl)benzamide], for which the YFM rating entry in assay [1] is reported as “A (80-100)”. Also, the pest or weed control at 50 µg/cm2 in assay [2] (setting [4]) and in assay [3] (setting [5]) was 50 to 100% in each case.
Consider `O=C(Nc1ccc(F)c(F)c1F)c1cc(NC(=O)[C@H]2[C@H](c3cc(Cl)cc(Cl)c3)C2(Cl)Cl)ccc1Cl` (relative stereo) [PF68, trans-2-Chloro-5-(2,2-dichloro-3-(3,5-dichlorophenyl)cyclopropane-1-carboxamido)-N-(2,3,4-trifluorophenyl)benzamide], for which the YFM rating entry in assay [1] is reported as “A (80-100)”. The pest or weed control at 50 µg/cm2 in assay [2] (setting [4]) and in assay [3] (setting [5]) was 50 to 100% each time.
